Source: ChEMBL document CHEMBL4184250, “Structure-activity studies of a macrocyclic peptide inhibitor of histone lysine demethylase 4A” (Bioorg Med Chem, 2018)
Where a SMILES comes first, the peptide text is derived from it. Bridges are numbered along the chain shown (N, C = ends). [ ]: non-standard residue; d: D form. NMeC = CN[C@@H](CS)C(=O)O

What was measured:
[1] = Drug uptake in human MCF7 cells assessed as cell area stained at 10 uM after 3 hrs by Hoechst 33342 staining based confocal microscopic analysis; type: ADME; details: mcf7, 3 h
[2] = biological target: T1, Lysine-specific demethylase 4C (Homo sapiens, UniProt Q9H3R0); assay: Inhibition of KDM4C (unknown origin) expressed in Escherichia coli using biotinylated peptide as substrate pretreated for 15 mins followed by substrate addition by Alphascreen assay
T1 sequence (Q9H3R0 whole entry): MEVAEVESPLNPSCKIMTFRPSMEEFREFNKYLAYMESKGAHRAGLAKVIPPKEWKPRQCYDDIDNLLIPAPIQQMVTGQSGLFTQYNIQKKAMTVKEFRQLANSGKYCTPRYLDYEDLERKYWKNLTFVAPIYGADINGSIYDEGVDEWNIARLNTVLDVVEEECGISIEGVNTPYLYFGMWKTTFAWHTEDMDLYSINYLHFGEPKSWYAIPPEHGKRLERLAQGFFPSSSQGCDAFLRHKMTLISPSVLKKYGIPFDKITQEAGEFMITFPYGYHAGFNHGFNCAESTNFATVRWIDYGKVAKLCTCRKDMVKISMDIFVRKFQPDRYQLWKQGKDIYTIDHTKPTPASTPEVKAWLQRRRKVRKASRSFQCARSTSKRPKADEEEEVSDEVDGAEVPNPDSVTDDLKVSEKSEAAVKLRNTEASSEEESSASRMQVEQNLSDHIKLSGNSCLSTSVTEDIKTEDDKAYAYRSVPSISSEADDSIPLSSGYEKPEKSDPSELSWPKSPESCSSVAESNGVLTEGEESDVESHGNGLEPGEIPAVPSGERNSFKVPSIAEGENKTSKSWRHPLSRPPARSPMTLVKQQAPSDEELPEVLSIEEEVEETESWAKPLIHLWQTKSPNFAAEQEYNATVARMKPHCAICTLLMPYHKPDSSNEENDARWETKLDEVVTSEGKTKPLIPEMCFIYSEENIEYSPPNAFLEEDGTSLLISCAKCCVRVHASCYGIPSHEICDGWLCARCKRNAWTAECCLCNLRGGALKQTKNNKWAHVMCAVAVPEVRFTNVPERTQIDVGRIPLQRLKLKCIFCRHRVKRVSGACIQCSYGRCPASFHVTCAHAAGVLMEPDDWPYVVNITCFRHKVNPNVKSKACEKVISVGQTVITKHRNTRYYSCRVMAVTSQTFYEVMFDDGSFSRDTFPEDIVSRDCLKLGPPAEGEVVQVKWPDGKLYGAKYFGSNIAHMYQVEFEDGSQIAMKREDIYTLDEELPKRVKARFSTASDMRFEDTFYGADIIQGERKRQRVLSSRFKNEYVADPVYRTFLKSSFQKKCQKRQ

[3] = biological target: T2, Lysine-specific demethylase 4A (Homo sapiens, UniProt O75164); assay: Inhibition of KDM4A (unknown origin) expressed in Escherichia coli using biotinylated peptide as substrate pretreated for 15 mins followed by substrate addition by Alphascreen assay
T2 sequence (O75164 whole entry): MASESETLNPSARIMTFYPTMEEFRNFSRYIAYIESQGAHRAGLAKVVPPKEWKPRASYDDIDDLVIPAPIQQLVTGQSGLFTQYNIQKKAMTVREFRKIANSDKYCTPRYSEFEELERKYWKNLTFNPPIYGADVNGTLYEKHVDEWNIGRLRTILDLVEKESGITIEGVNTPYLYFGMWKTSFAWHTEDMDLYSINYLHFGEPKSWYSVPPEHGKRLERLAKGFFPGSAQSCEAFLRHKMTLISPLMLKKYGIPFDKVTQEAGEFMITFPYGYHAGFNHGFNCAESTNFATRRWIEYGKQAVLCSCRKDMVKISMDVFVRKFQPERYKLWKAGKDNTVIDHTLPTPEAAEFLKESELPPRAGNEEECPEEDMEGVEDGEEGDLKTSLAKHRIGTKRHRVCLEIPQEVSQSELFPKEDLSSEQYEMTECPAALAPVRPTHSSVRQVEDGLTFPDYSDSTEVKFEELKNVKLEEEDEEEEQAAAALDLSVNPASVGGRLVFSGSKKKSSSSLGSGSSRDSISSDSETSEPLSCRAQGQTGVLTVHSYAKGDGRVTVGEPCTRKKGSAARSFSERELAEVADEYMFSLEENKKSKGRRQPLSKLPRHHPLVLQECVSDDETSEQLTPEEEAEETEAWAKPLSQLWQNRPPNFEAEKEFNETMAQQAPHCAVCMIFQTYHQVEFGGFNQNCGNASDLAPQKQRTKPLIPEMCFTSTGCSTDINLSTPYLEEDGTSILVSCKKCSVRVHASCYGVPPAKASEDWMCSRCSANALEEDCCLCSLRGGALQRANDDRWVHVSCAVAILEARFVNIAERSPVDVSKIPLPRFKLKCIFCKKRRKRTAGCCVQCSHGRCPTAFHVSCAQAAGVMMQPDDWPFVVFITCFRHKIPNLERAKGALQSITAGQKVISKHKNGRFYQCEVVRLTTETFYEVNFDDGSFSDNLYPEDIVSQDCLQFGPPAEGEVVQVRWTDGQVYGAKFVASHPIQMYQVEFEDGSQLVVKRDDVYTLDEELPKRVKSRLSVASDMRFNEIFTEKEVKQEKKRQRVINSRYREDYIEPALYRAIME

[4] = biological target: T2, Lysine-specific demethylase 4A; assay: Binding affinity to biotinylated-KDM4A (unknown origin) at 300 nM by bio-layer interferometric method; details: read-out: Kd(app)
[5] = biological target: T2, Lysine-specific demethylase 4A; assay: Inhibition of full length FLAG-tagged KDM4A (unknown origin) expressed in human HeLa cells assessed as increase in H3K9me3 levels after 24 hrs by DAPI staining based immunofluorescence assay; type: cell-based

Row | Drug uptake [1] [%] | IC50 [2] [nM] | IC50 [3] [nM] | Kd [4] [nM] | EC50 ([5]; hela) [nM] | EC50 [5] [nM] | SMILES
1 | 97.1 | 173 | 208 | 14 | > 50000 | – | CC[C@H](C)[C@@H]1NC(=O)[C@H](CCCNC(=N)N)NC(=O)[C@@H]2CCCN2C(=O)[C@@H](Cc2ccc(O)cc2)NC(=O)CSC[C@@H](C(N)=O)NC(=O)[C@H](Cc2c[nH]c3ccccc23)NC(=O)[C@H](CCCNC(=N)N)NC(=O)[C@H]([C@@H](C)CC)NC(=O)[C@@H](C)NC(=O)[C@H](CO)NC(=O)[C@H](CCCNC(=N)N)NC(=O)[C@H](CCCNC(=N)N)NC1=O
2 | 1.7 | 154 | 82 | 49 | – | – | CC[C@H](C)[C@@H]1NC(=O)[C@H](CC(C)C)NC(=O)CNC(=O)[C@H](CO)NC(=O)[C@H](CCCNC(=N)N)NC(=O)[C@H](C(C)C)NC(=O)[C@H](C(C)C)NC(=O)[C@H](CCCCN)NC(=O)[C@@H]2CCCN2C(=O)[C@H](Cc2ccc(O)cc2)NC(=O)CSC[C@@H](C(N)=O)NC(=O)[C@H](Cc2c[nH]c3ccccc23)NC1=O ({CH2CO}-YPKVVRSGLIWC-NH2; thioether N-12)
3 | 18 | 53 | 34 | 8.3 | – | > 50000 | CC[C@H](C)[C@@H]1NC(=O)[C@H](CCCNC(=N)N)NC(=O)[C@H]([C@@H](C)CC)NC(=O)[C@H](Cc2ccc(O)cc2)NC(=O)CSC[C@@H](C(N)=O)N(C)C(=O)[C@H](Cc2c[nH]c3ccccc23)NC(=O)[C@H](CC(C)C)NC(=O)[C@H](Cc2c[nH]c3ccccc23)NC(=O)CNC(=O)[C@H](CO)NC(=O)[C@H](CCCNC(=N)N)NC(=O)[C@H](CCCNC(=N)N)NC1=O ({CH2CO}-YIRIRRSGWLW[NMeC]-NH2; thioether N-12)
4 | 2.9 | 22 | 43 | 3.7 | – | – | CC[C@H](C)[C@@H]1NC(=O)[C@H](Cc2c[nH]c3ccccc23)NC(=O)CNC(=O)[C@H](CO)NC(=O)[C@H](CCCNC(=N)N)NC(=O)[C@H](C(C)C)NC(=O)[C@H](C(C)C)NC(=O)[C@H](CCCNC(=N)N)NC(=O)[C@H]([C@@H](C)CC)NC(=O)[C@@H](Cc2ccc(O)cc2)NC(=O)CSC[C@@H](C(N)=O)NC(=O)[C@H](Cc2c[nH]c3ccccc23)NC1=O
5 | 0.8 | 55 | 41 | 21 | – | – | CC[C@H](C)[C@@H]1NC(=O)[C@H](Cc2c[nH]c3ccccc23)NC(=O)CNC(=O)[C@H](CO)NC(=O)[C@H](CCCNC(=N)N)NC(=O)[C@H](CCCCN)NC(=O)[C@H]([C@@H](C)CC)NC(=O)[C@H](CO)NC(=O)[C@@H]2CCCN2C(=O)[C@H](Cc2ccc(O)cc2)NC(=O)CSC[C@@H](C(N)=O)NC(=O)[C@H](Cc2c[nH]c3ccccc23)NC1=O ({CH2CO}-YPSIKRSGWIWC-NH2; thioether N-12)
6 | 12.1 | 23 | 31 | 16 | – | – | CC[C@H](C)[C@@H]1NC(=O)[C@H](CCCNC(=N)N)NC(=O)[C@H]([C@@H](C)CC)NC(=O)[C@H](Cc2ccc(O)cc2)NC(=O)CSC[C@@H](C(N)=O)NC(=O)[C@H](Cc2c[nH]c3ccccc23)NC(=O)[C@H](C(C)C)NC(=O)[C@H](Cc2c[nH]c3ccccc23)NC(=O)CNC(=O)[C@H](CO)NC(=O)[C@H](CCCNC(=N)N)NC(=O)[C@H](CO)NC1=O ({CH2CO}-YIRISRSGWVWC-NH2; thioether N-12)
7 | 3.4 | 151 | 81 | 173 | – | – | CC[C@H](C)[C@@H]1NC(=O)[C@H](CC(C)C)NC(=O)[C@H](Cc2ccc(O)cc2)NC(=O)CSC[C@@H](C(N)=O)NC(=O)[C@H](Cc2c[nH]c3ccccc23)NC(=O)[C@H](C(C)C)NC(=O)[C@H](CC(C)C)NC(=O)CNC(=O)[C@H](CO)NC(=O)[C@H](CCCNC(=N)N)NC(=O)[C@H](CCCNC(=N)N)NC(=O)[C@H](C(C)C)NC1=O ({CH2CO}-YLIVRRSGLVWC-NH2; thioether N-12)
